Measurements: publication PMC12275099, “VX-445 (elexacaftor) inhibits chloride secretion across human bronchial epithelial cells by directly blocking KCa3.1 channels” (PNAS Nexus, 2025)
Several values for one entry are separate records, joined by “and”; a condition that tells them apart may be missing. Equal entries are not always repeated. Entries after “also recorded” stand apart in the source; their conditions may differ.

Columns and labels:
[1] = molecular target: T1, endogenous KCa3.1 in WT CFTR-expressing HBEs (Homo sapiens, UniProt O15554); experiment: Whole-cell patch-clamp on undifferentiated HBEs; type: cell-based; conditions: TRAM-34 subsequent to VX-445, Fig 3C single cells
T1 construct: endogenous in cells; host or cells: undifferentiated primary human bronchial epithelial cells (WT CFTR donors)
Procedure: (§1) Our Isc results are consistent with VX-445 inhibiting KCa3.1 in HBEs. To directly assess this possibility, we initially carried out whole-cell patch-clamp studies on undifferentiated HBEs. […] Upon application of 10 µM VX-445, a majority of this current was inhibited, averaging 87 ± 4% (n = 3, P < 0.005; Fig. 3B). A summary of the current–voltage (I–V) relationship—normalized to cell capacitance—is shown in Fig. 3C, which also includes the whole-cell I–V in the presence of Tram-34. […] To ensure isolation of KCa3.1 currents and to more fully characterize this VX-445-dependent inhibition of KCa3.1, we utilized HEK cells heterologously expressing KCa3.1 (HEK-KCa3.1). Initially, we confirmed our results from HBEs, using whole-cell recordings, as above. […] In seven experiments, this inhibition averaged 58 ± 7% (P < 0.005). […] It is well recognized that drugs are carried to their targets in the blood bound to albumin, which ranges from 3.4 to 5.4%. Thus, we determined whether VX-445 (10 µM) would inhibit KCa3.1 expressed in HEK cells in the presence of 3.4% albumin. In four experiments, VX-445 inhibited an average of 51 ± 17% of the whole-cell KCa3.1 current, which is not different from that observed in the absence of albumin. To confirm the direct effect of VX-445 on KCa3.1, we utilized the excised, inside-out patch-clamp technique. The patch was then exposed to DCEBIO (100 µM) to further activate the channels ([34–37])—analogous to our Isc studies in HBEs. […] In three experiments, VX-445 inhibited an average of 63 ± 6% of the KCa3.1 current. Based on these experiments, we determined the apparent inhibitory constant, Ki for VX-445. For these experiments, patches were excised into saturating Ca^2+ (3 µM) to ensure maximal KCa3.1 activation. These studies were carried out in the absence of DCEBIO to eliminate the possibility that the inhibition observed was due to competition for the DCEBIO-binding site.
Primary human bronchial epithelial cells (HBEs) were collected from unused or discarded samples from the Center for Organ Recovery and Education via the University of Pittsburgh Pulmonary, Allergy, Critical Care, and Sleep Medicine Lung Biobank and Repository. All experimental procedures involving the use of HBEs were approved by the institutional review board (IRB STUDY19090084) and the Committee for Oversight of Research and Clinical Training Involving Decedents (CORID number 451) at the University of Pittsburgh. At all times, authors were blind to the identity of HBE donors. HBEs were cultured using the Vertex method ([72]). Studies were carried out on WT CFTR HBEs from 11 ([13]) donors and homozygous F508del/F508del CFTR HBEs from five ([5]) separate donors. […]

KCa3.1 [2] = molecular target: T2, KCa3.1 (Homo sapiens, UniProt O15554); experiment: Whole-cell patch-clamp on HEK cells heterologously expressing KCa3.1; type: cell-based; conditions: for effect on KCa3.1 current: 10 µM, data not shown
T2 construct: expressed in transfected cells
Procedure: as §1
(§2) HEK cells stably expressing KCa3.1 (IK1, SK4), KCa2.3 (SK3), and KCa2.2 (SK2) were generated and cultured as previously described by us ([37], [66–71]).
(§3) HEK cells expressing the channel of interest were plated onto poly-L-lysine-coated glass coverslips 1–2 days prior to patch-clamp analysis. Electrophysiological recordings in the excised, inside-out, and whole-cell patch-clamp configurations were performed as recently described ([14]). For excised patch-clamp recordings, the pipette solution contained (in mM): 140 K-gluconate, 5 KCl, 1 CaCl2, 1 MgCl2, and 10 HEPES. The pH was adjusted to 7.2 with KOH. The bath solution contained (in mM): 145 K-gluconate, 5 KCl, 1.3 MgCl2, 10 HEPES, and 1 EGTA. Sufficient CaCl2 was added to obtain the desired free Ca^2+ concentration at a pH of 7.2 (adjusted with KOH). When recording KCa3.1 channels, ATP (300 µM) was added to the bath to diminish channel rundown ([73]). All recordings were carried out at a voltage of −100 mV, referenced to the extracellular compartment, as is standard. The apparent Ki and Hill coefficient for each CFTR corrector on KCa3.1, KCa2.3, and KCa2.2 were determined during a continuous recording by step-wise addition of increasing concentrations of compound and fitting the resultant relative remaining current to a Hill equation (Prism v. 10.1.0). The zero current level was determined by the addition of a 0 Ca^2+ solution (zero-added Ca^2+ plus 1 mM EGTA) at the end of the experiment. In the case of KCa3.1, TRAM-34, a known inhibitor of KCa3.1 ([45]), was used to confirm expression of the channel. For whole-cell experiments, pipettes contained (in mM): 145 K-gluconate, 10 EGTA, 7.5 CaCl2, 2 MgCl2, 3 mM NaATP, and 10 HEPES. The bath solution contained (in mM): 140 K-gluconate, 5 KCl, 1.0 MgCl2, 10 HEPES, and 2 CaCl2. Current–voltage relationships were determined by stepping from a holding potential of −80 mV to +80 mV in 20 mV increments for 400 ms. […]

WT CFTR HBEs = experiment: Ussing chamber Isc, DCEBIO-induced Cl- secretion; type: cell-based, human
Description: (§4) Primary human bronchial epithelial cells (HBEs) were collected from unused or discarded samples from the Center for Organ Recovery and Education via the University of Pittsburgh Pulmonary, Allergy, Critical Care, and Sleep Medicine Lung Biobank and Repository. All experimental procedures involving the use of HBEs were approved by the institutional review board (IRB STUDY19090084) and the Committee for Oversight of Research and Clinical Training Involving Decedents (CORID number 451) at the University of Pittsburgh. At all times, authors were blind to the identity of HBE donors. HBEs were cultured using the Vertex method ([72]). Studies were carried out on WT CFTR HBEs from 11 ([13]) donors and homozygous F508del/F508del CFTR HBEs from five ([5]) separate donors. HBEs were plated on Costar Transwell permeable supports ([…], 6.5 mm insert, polyester membrane, Corning) and grown at an air–liquid interface for 5+ weeks in HBE differentiation medium containing 2% Ultroser-G. Basolateral media were replaced three times per week. For whole-cell patch-clamp studies, HBEs were maintained in BronchiaLife airway media (LifeLine Cell Technology, LS-1047) and plated onto poly-L-lysine-coated coverslips (see below).
(§5) Costar Transwell inserts were mounted in a modified Ussing chamber (P2300, Physiologic Instruments) and the monolayers continuously short-circuited (VCC MC8, Physiologic Instruments) by forcing the transepithelial voltage to 0 mV. Short-circuit current (Isc) measurements were taken in symmetric solutions, containing (in mM): 120 NaCl, 25 NaHCO3, 3.3 KH2PO4, 0.8 K2HPO4, 1.2 CaCl2, 1.2 MgCl2, and 10 glucose. The pH of the solution is 7.4 when gassed with 95% O2–5% CO2 at 37°C. Compounds were added cumulatively following the establishment of a new stable current response. Amiloride was added to the apical membrane, while all other compounds were added to both membranes due to their lipophilic nature. In all experiments, 10 µM amiloride was used to inhibit sodium absorption. Percent inhibition was calculated as the change in Isc (ΔIsc) between the forskolin or DCEBIO stable current level and the Isc following addition of the compound being assessed divided by the ΔIsc between the stable forskolin- or DCEBIO-induced Isc and the Isc following bumetanide addition.

[3] = system: primary WT CFTR-expressing HBEs; experiment: Ussing chamber Isc, forskolin-stimulated Cl- secretion; type: cell-based, human; conditions: for effect on the bumetanide-insensitive current: applied after forskolin and bumetanide, VX-445 10 µM, acetazolamide 1 µM
Description: as §4, §5

KCa3.1 [4] = molecular target: T2, KCa3.1; experiment: Excised inside-out patch-clamp on HEK-KCa3.1; type: biochemical; conditions: TRAM-34 3 µM after DCEBIO and VX-445 10 µM
Procedure: as §1, §2, §3

[5] = system: BKCa (KCa1.1, KCNMA1) channels; parameters: method as in PMID 38954478; conditions: primary HBEs and HEK cells heterologously expressing the channel; cited from earlier work

For `Clc1ccccc1C(c1ccccc1)(c1ccccc1)n1cccn1` [TRAM-34], the “whole-cell current normalized to cell capacitance” value (“whole-cell current normalized” for short) ([1]; -40 mV) was 0.875 and 0.576, the “whole-cell current normalized” value ([1]; -60 mV) was 0.344 and 0.305 and the “whole-cell current normalized” value ([1]; -80 mV) was 0.0478 and 0.0385. For the same compound, the “effect on current remaining after VX-445” value (KCa3.1 [2]; TRAM-34 1 µM after VX-445 10 µM) was “inhibited the remainder of the current”, the “effect on DCEBIO-stimulated Isc” value (WT CFTR HBEs; TRAM-34 5 µM, DCEBIO 100 µM, no VX-445) was “inhibits the DCEBIO-stimulated Isc response” and the “effect on DCEBIO-stimulated Isc following VX-445” value (WT CFTR HBEs; TRAM-34 after DCEBIO and VX-445 10 µM) was “had little effect”. The “effect on forskolin-stimulated Isc” value ([3]; TRAM-34 5 µM, no VX-445) was “inhibits a portion of the current”, the “effect on forskolin-stimulated Isc following VX-445” value ([3]; TRAM-34 after VX-445 10 µM) was “failed to inhibit additional current” and the “effect on the bumetanide-insensitive current” value [3] was “failed to decrease”. The “effect on current remaining after VX-445” value (KCa3.1 [4]) was “inhibited the remainder of the current”.
For `CC1(C)C[C@@H]2CCCNc3cccc(n3)S(=O)(=O)NC(=O)c3ccc(-n4ccc(OCCC5C6(CC6)C56CC6)n4)nc3N1C2` [VX-121, vanzacaftor], the inhibition at 10 µM (KCa3.1 [2]; HEK293, VX-121 10 µM, three experiments, read-out: inhibition of whole-cell KCa3.1 current) is listed as 85 ± 8% and the “effect on BKCa” value [5] is listed as “act as direct potentiators”.
For `CC(C)(CO)c1cc2cc(NC(=O)C3(c4ccc5c(c4)OC(F)(F)O5)CC3)c(F)cc2n1C[C@@H](O)CO` [VX-661, tezacaftor], the “effect on KCa3.1 current” value (KCa3.1 [2]) is listed as “had no effect; also recorded: failed to inhibit”, the “effect on forskolin-mediated Cl- secretion” value ([3]; VX-661 10 µM) is listed as “had no effect” and the “effect on BKCa” value [5] is listed as “had no effect”.
In the case of `CC(C)(C)c1cc(C(C)(C)C)c(NC(=O)c2c[nH]c3ccccc3c2=O)cc1O` [VX-770, ivacaftor], the “effect on BKCa” value [5] is listed as “had no effect”.
For `Cc1ccc(NC(=O)C2(c3ccc4c(c3)OC(F)(F)O4)CC2)nc1-c1cccc(C(=O)O)c1` [VX-809], the “effect on KCa3.1 current” value (KCa3.1 [2]) was “failed to inhibit”.
With `CC(=O)Nc1nnc(S(N)(=O)=O)s1` [acetazolamide] the “effect on the bumetanide-insensitive current” value [3] was “partially inhibited the remaining current”.
For `CCCCNc1cc(C(=O)O)cc(S(N)(=O)=O)c1Oc1ccccc1` [bumetanide], the “Isc in the presence of bumetanide” value ([3]; Fig 1F, single filters, after forskolin) was 21 and 18 and 15 and 17 and 14 and 19 and 23 and 20.
With `C=C[C@@]1(C)CC(=O)[C@]2(O)[C@@]3(C)[C@@H](O)CCC(C)(C)[C@@H]3[C@H](O)[C@H](OC(C)=O)[C@@]2(C)O1` [forskolin] the “Isc in the presence of forskolin” value ([3]; Fig 1F, single filters) was 31 and 30 and 24 and 28 and 26 and 34 and 27 and 32 and the “Isc in the presence of forskolin” value ([3]; Fig 2B, single filters) was 17 and 18 and 23 and 24 and 19 and 21.
For `CC(C)(O)[C@H]1O[C@H]2CC[C@@]3(C)[C@@](O)(CC[C@H]4Cc5c([nH]c6ccccc56)[C@@]43C)C2=CC1=O` [paxilline], the “Isc in the presence of paxilline” value ([3]; Fig 2B, single filters, paxilline 10 µM after forskolin and VX-445) was 12 and 11 and 15 and 20 and 21 and 19 and 14 and the “effect on Isc subsequent to VX-445-induced decrease” value ([3]; paxilline 10 µM after forskolin and VX-445 10 µM) was “had no effect”.
